Measurements from patent US20100261711A1, “SELECTIVE ANTICONVULSANT AGENTS AND THEIR USES” (WiSys Technology Foundation, priority 2009, published 2010).

What was measured:
[1] = target: T1, GABAA/α2 (α2β3γ2 GABAA receptors) (Homo sapiens, UniProt P18507+P47869); assay: Competitive binding assay, [3H]flunitrazepam; conditions: Binding Affinity at GABAA/α2, αxβ3γ2, [3H]flunitrazepam competition
T1 construct: expressed in transfected cells
Experimental: (§1) The GABAA subunit selectivity of several compounds prepared as described above were determined using competitive binding assays. […] Membranes were harvested with a Brandel cell harvester followed by three ice-cold washes onto polyethyleneimine-pretreated (0.3%) Whatman GF/C filters. Filters were dried overnight and then soaked in Ecoscint, a liquid scintillation cocktail (National Diagnostics; Atlanta, Ga.). Bound radioactivity was quantified by liquid scintillation counting. Membrane protein concentrations were determined using an assay kit from Bio-Rad (Hercules, Calif.) with bovine serum albumin as the standard.

[2] = target: T2, GABAA/α5 (α5β3γ2 GABAA receptors) (Homo sapiens, UniProt P18507+P31644); assay: Competitive binding assay, [3H]flunitrazepam; conditions: Binding Affinity at GABAA/α5, αxβ3γ2, [3H]flunitrazepam competition
T2 construct: expressed in transfected cells
Experimental: as §1

[3] = target: T3, GABAA/α1 (α1β3γ2 GABAA receptors) (Homo sapiens, UniProt P14867+P18507); assay: Competitive binding assay, [3H]flunitrazepam; conditions: Binding Affinity at GABAA/α1, αxβ3γ2, [3H]flunitrazepam competition
T3 construct: expressed in transfected cells
Experimental: as §1

[4] = target: T4, GABAA/α3 (α3β3γ2 GABAA receptors) (Homo sapiens, UniProt P18507+P34903); assay: Competitive binding assay, [3H]flunitrazepam; conditions: Binding Affinity at GABAA/α3, αxβ3γ2, [3H]flunitrazepam competition
T4 construct: expressed in transfected cells
Experimental: as §1

SMILES | melting point | Ki [1] | Ki [2] | Ki [3] | Ki [4]
O=C(OCC(F)(F)F)c1ncn2c1CN=C(c1ccccc1)c1cc(Br)ccc1-2 | 202 to 204 °C |  |  |  | 
O=C(OCC(Cl)(Cl)Cl)c1ncn2c1CN=C(c1ccccc1)c1cc(Br)ccc1-2 | 113 to 116 °C |  |  |  | 
C[Si](C)(C)C#Cc1ccc2c(c1)C(c1ccccc1)=NCc1c(C(=O)OCC(F)(F)F)ncn1-2 | 107 to 110 °C |  |  |  | 
C#Cc1ccc2c(c1)C(c1ccccc1)=NCc1c(C(=O)OCC(F)(F)F)ncn1-2 [DM-II-20, Trifluoroethyl 8-acetylenyl-6-phenyl-4H-benzo[f]imidazo[1,5-a][1,4]diaze-pine-3-carboxylate] | 188 to 190 °C | 177 nM | 198 nM | 5720 nM | 35.7 nM
